Results reported in ChEMBL document CHEMBL1177794, “Broad spectrum alkynyl inhibitors of T315I Bcr-Abl” (Bioorg Med Chem Lett, 2010).

Tests used:
[1] = target: Serine/threonine-protein kinase RIO2 (Homo sapiens) (UniProt Q9BVS4); assay: Inhibition of RIOK2 at 10 uM; details: values are per cent of control
[2] = target: Serine/threonine-protein kinase 33 (Homo sapiens) (UniProt Q9BYT3); assay: Inhibition of STK33 at 10 uM
[3] = target: Myosin-IIIa (Homo sapiens) (UniProt Q8NEV4); assay: Inhibition of MYO3A at 10 uM
[4] = test system: Phosphatidylinositol 4,5-bisphosphate 3-kinase catalytic subunit alpha isoform (Homo sapiens), P42336 [M1043I]; assay: Inhibition of PIK3CA M1043I mutant at 10 uM
[5] = target: Tyrosine-protein kinase FRK (Homo sapiens) (UniProt P42685); assay: Inhibition of FRK at 10 uM; details: values are per cent of control
[6] = target: Ribosomal protein S6 kinase alpha-2 (Homo sapiens) (UniProt Q15349); assay: Inhibition of RSK3 N-terminal domain1 at 10 uM
[7] = target: Activin receptor type-1 (Homo sapiens) (UniProt Q04771); assay: Inhibition of ACVR1 at 10 uM; details: values are per cent of control
Sequence of Activin receptor type-1 (Homo sapiens) (Q04771 whole entry): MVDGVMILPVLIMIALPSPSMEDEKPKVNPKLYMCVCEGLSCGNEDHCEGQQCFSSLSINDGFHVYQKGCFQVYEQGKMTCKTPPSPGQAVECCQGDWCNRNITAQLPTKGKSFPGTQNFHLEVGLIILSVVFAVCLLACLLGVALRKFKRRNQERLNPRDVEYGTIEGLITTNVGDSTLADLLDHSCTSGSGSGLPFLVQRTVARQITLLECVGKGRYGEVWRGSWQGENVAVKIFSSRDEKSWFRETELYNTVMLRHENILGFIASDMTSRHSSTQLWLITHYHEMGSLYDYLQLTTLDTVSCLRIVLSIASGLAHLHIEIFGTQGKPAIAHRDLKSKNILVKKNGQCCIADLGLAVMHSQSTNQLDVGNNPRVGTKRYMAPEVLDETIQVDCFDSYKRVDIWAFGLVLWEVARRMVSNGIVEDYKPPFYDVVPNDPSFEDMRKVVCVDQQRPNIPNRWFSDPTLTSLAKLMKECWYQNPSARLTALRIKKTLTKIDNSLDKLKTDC

BaF3 = assay: Antiproliferative activity against mouse BAF3 cells; format: functional, cell-based
[8] = target: Activin receptor type-1B (Homo sapiens) (UniProt P36896); assay: Inhibition of ACVR1B at 10 uM; details: values are per cent of control
Sequence of Activin receptor type-1B (Homo sapiens) (P36896 whole entry): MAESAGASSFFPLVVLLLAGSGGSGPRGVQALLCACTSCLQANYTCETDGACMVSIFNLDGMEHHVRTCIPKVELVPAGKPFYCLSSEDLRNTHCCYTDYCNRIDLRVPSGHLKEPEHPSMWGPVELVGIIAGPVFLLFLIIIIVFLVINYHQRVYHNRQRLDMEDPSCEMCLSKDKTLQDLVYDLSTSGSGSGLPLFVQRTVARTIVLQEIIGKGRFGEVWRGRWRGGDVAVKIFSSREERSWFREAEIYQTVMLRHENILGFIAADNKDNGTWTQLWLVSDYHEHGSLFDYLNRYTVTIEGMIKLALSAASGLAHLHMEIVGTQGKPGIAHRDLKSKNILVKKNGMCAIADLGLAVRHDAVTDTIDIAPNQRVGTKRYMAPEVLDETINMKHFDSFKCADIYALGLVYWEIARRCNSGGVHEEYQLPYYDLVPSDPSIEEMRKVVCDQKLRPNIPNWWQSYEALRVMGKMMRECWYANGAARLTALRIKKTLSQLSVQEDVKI

[9] = test system: Epidermal growth factor receptor (Homo sapiens), P00533 [G719S]; assay: Inhibition of EGFR G719S mutant at 10 uM; values are per cent of control
Sequence of Epidermal growth factor receptor (Homo sapiens), P00533 [G719S] (P00533 whole entry G719S): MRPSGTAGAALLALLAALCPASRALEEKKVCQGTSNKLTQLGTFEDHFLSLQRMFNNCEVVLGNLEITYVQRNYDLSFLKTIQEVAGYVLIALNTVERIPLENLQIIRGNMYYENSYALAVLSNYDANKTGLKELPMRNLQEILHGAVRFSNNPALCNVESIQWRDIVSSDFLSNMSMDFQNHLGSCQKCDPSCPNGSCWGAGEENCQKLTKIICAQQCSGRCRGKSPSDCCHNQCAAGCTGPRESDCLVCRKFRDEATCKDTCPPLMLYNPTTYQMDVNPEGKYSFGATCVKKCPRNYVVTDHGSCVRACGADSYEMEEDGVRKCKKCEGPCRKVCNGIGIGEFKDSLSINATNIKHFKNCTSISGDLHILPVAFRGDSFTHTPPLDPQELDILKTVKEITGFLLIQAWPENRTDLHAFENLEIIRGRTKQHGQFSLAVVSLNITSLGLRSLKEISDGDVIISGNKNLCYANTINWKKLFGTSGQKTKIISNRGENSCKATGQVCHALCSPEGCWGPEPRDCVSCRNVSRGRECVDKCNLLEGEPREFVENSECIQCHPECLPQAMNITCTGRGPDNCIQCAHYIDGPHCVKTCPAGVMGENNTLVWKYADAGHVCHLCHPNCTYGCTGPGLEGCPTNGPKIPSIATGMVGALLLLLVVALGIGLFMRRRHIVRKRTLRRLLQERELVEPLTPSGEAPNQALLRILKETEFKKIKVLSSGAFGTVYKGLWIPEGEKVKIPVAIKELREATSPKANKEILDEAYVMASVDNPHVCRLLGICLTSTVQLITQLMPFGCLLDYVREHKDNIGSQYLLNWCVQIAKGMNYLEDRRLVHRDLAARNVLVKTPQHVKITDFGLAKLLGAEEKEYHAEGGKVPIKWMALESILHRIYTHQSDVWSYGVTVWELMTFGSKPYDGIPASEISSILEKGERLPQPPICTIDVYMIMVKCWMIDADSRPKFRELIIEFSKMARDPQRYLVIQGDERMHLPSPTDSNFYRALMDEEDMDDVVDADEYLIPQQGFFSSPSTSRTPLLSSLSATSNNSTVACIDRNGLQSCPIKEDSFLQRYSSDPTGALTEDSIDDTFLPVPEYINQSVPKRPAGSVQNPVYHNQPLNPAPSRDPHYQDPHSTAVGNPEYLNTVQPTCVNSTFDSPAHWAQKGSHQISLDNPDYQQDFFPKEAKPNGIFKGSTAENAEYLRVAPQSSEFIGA

[10] = test system: Epidermal growth factor receptor (Homo sapiens), P00533 [L858R,T790M]; assay: Inhibition of EGFR L858R, T790M mutant at 10 uM; values are per cent of control
[11] = target: Interferon-induced, double-stranded RNA-activated protein kinase (Homo sapiens) (UniProt P19525); assay: Inhibition of PRKR at 10 uM
[12] = target: Mitogen-activated protein kinase kinase kinase 4 (Homo sapiens) (UniProt Q9Y6R4); assay: Inhibition of MAP3K4 at 10 uM; details: values are per cent of control
[13] = target: Phosphatidylinositol 4-kinase beta (Homo sapiens) (UniProt Q9UBF8); assay: Inhibition of PIK4CB at 10 uM
[14] = target: Tyrosine-protein kinase ZAP-70 (Homo sapiens) (UniProt P43403); assay: Inhibition of ZAP70 at 10 uM; details: values are per cent of control
Sequence of Tyrosine-protein kinase ZAP-70 (Homo sapiens) (P43403 whole entry): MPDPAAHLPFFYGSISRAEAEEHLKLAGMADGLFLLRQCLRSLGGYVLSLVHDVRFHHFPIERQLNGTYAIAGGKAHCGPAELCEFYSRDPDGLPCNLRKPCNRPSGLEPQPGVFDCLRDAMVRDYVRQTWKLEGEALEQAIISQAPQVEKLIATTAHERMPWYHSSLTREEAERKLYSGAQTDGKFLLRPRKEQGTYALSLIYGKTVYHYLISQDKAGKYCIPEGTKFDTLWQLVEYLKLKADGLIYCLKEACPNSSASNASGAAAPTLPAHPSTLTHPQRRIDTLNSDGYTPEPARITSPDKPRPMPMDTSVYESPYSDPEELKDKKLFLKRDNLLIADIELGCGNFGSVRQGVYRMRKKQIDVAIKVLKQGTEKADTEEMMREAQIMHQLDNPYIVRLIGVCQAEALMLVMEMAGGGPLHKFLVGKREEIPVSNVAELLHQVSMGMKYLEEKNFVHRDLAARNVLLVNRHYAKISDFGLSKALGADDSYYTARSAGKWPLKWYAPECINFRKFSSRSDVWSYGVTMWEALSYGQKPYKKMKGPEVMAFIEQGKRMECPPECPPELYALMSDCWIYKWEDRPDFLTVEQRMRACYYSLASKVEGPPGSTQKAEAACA

[15] = target: Interleukin-1 receptor-associated kinase 4 (Homo sapiens) (UniProt Q9NWZ3); assay: Inhibition of IRAK4 at 10 uM; values are per cent of control
[16] = target: Mitogen-activated protein kinase kinase kinase 20 (Homo sapiens) (UniProt Q9NYL2); assay: Inhibition of ZAK at 10 uM; details: values are per cent of control
[17] = test system: Epidermal growth factor receptor (Homo sapiens), P00533 [T790M]; assay: Inhibition of EGFR T790M mutant at 10 uM; values are per cent of control
[18] = target: Cyclin-dependent kinase 16 (Homo sapiens) (UniProt Q00536); assay: Inhibition of PCTK1 at 10 uM; details: values are per cent of control
[19] = target: Homeodomain-interacting protein kinase 2 (Homo sapiens) (UniProt Q9H2X6); assay: Inhibition of HIPK2 at 10 uM; details: values are per cent of control
[20] = target: ALK tyrosine kinase receptor (Homo sapiens) (UniProt Q9UM73); assay: Inhibition of ALK at 10 uM; values are per cent of control
[21] = target: Cyclin-dependent kinase 9 (Homo sapiens) (UniProt P50750); assay: Inhibition of CDK9 at 10 uM; values are per cent of control
[22] = target: TGF-beta receptor type-1 (Homo sapiens) (UniProt P36897); assay: Inhibition of TGFBR1 at 10 uM
[23] = target: Serine/threonine-protein kinase Nek9 (Homo sapiens) (UniProt Q8TD19); assay: Inhibition of NEK9 at 10 uM
[24] = target: Mitogen-activated protein kinase kinase kinase 2 (Homo sapiens) (UniProt Q9Y2U5); assay: Inhibition of MAP3K2 at 10 uM; details: values are per cent of control
[25] = target: MAP kinase-interacting serine/threonine-protein kinase 2 (Homo sapiens) (UniProt Q9HBH9); assay: Inhibition of MKNK2 at 10 uM
[26] = target: Protein kinase C eta type (Homo sapiens) (UniProt P24723); assay: Inhibition of PRKCH at 10 uM
[27] = target: Myosin light chain kinase 2, skeletal/cardiac muscle (Homo sapiens) (UniProt Q9H1R3); assay: Inhibition of MYLK2 at 10 uM
[28] = target: Interleukin-1 receptor-associated kinase 3 (Homo sapiens) (UniProt Q9Y616); assay: Inhibition of IRAK3 at 10 uM; details: values are per cent of control
[29] = target: G protein-coupled receptor kinase 4 (Homo sapiens) (UniProt P32298); assay: Inhibition of GRK4 at 10 uM; details: values are per cent of control
[30] = test system: Phosphatidylinositol 4,5-bisphosphate 3-kinase catalytic subunit alpha isoform (Homo sapiens), P42336 [H1047L]; assay: Inhibition of PIK3CA H1047L mutant at 10 uM
[31] = target: Vascular endothelial growth factor receptor 2 (Homo sapiens) (UniProt P35968); assay: Inhibition of VEGFR2 at 10 uM; details: values are per cent of control
Sequence of Vascular endothelial growth factor receptor 2 (Homo sapiens) (P35968 whole entry): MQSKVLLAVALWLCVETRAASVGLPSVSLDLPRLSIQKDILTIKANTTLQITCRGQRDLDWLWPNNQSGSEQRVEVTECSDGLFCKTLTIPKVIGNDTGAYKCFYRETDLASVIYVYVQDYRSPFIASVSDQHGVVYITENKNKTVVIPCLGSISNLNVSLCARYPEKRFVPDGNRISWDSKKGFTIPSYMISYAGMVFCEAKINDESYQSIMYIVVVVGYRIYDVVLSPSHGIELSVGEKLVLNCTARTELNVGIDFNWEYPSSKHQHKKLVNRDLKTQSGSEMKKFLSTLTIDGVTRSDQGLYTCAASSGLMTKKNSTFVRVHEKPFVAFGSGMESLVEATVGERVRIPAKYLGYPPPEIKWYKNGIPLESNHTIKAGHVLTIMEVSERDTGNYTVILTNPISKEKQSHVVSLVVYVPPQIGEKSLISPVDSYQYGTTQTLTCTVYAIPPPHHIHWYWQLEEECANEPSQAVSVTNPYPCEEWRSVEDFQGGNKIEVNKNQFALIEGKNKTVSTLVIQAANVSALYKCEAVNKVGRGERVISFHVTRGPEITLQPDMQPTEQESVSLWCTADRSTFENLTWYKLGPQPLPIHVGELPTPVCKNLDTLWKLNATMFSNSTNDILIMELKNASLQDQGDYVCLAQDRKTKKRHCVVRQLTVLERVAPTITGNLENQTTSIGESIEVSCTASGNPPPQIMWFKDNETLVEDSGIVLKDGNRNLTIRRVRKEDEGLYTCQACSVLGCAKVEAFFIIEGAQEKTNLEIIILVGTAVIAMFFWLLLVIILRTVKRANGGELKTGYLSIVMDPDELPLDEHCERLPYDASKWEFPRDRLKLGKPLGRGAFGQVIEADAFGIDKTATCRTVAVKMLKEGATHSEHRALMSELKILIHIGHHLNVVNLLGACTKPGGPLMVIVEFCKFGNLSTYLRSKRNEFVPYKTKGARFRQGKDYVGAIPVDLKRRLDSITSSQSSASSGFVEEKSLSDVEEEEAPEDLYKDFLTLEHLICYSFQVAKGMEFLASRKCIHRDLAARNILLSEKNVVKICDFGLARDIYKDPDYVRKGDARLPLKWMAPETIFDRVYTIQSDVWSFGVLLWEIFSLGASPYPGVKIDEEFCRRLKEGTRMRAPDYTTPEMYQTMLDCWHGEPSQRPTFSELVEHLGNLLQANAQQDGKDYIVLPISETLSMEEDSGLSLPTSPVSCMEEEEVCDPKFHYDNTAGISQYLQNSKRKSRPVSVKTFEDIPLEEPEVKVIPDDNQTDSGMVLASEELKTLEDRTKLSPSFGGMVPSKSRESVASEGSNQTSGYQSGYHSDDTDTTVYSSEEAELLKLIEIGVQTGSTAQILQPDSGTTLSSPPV

[32] = target: Serine/threonine-protein kinase tousled-like 1 (Homo sapiens) (UniProt Q9UKI8); assay: Inhibition of TLK1 at 10 uM
[33] = test system: Hepatocyte growth factor receptor (Homo sapiens), P08581 [M1250T]; assay: Inhibition of MET M1250T mutant at 10 uM
[34] = test system: Receptor-type tyrosine-protein kinase FLT3 (Homo sapiens), P36888 [K663Q]; assay: Inhibition of FLT3 K663Q mutant at 10 uM; details: values are per cent of control
[35] = test system: Tyrosine-protein kinase ABL1 (Homo sapiens), P00519 [T315I]; assay: Inhibition of non phosphorylated ABL1 T315I mutant at 10 uM; details: values are per cent of control
[36] = target: RAC-alpha serine/threonine-protein kinase (Homo sapiens) (UniProt P31749); assay: Inhibition of AKT1 at 10 uM; details: values are per cent of control
[37] = target: Casein kinase I isoform epsilon (Homo sapiens) (UniProt P49674); assay: Inhibition of CSNK1E at 10 uM; values are per cent of control
[38] = target: Tyrosine-protein kinase receptor TYRO3 (Homo sapiens) (UniProt Q06418); assay: Inhibition of TYRO3 at 10 uM; details: values are per cent of control
[39] = target: Ephrin type-B receptor 2 (Homo sapiens) (UniProt P29323); assay: Inhibition of EPHB2 at 10 uM; values are per cent of control
[40] = target: Ribosomal protein S6 kinase beta-1 (Homo sapiens) (UniProt P23443); assay: Inhibition of S6K1 at 10 uM
[41] = target: Serine/threonine-protein kinase D3 (Homo sapiens) (UniProt O94806); assay: Inhibition of PRKD3 at 10 uM
Sequence of Serine/threonine-protein kinase D3 (Homo sapiens) (O94806 whole entry): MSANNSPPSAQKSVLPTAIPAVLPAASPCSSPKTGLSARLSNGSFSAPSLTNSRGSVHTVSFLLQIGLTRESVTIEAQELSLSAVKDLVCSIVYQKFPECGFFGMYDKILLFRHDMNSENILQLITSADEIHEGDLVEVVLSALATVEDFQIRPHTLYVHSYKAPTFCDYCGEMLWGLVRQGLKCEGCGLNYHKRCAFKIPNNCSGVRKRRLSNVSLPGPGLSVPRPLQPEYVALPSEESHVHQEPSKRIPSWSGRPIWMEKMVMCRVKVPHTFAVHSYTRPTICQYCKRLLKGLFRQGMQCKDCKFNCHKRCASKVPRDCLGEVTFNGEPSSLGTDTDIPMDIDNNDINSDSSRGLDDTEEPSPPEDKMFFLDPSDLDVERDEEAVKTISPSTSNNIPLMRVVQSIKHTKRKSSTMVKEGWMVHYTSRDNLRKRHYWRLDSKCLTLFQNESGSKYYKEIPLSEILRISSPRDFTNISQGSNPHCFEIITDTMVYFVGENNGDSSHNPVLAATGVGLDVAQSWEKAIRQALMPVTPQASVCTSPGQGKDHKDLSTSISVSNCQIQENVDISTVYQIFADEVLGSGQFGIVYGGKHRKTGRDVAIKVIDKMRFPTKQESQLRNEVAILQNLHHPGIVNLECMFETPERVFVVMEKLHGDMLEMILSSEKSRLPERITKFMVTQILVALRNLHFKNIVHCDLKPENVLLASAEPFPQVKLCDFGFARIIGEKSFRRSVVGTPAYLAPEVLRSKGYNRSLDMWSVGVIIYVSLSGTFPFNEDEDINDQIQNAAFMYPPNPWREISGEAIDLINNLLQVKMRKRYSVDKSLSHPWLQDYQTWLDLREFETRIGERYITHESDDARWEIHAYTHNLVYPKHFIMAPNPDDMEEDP

[42] = target: Serine/threonine-protein kinase SIK2 (Homo sapiens) (UniProt Q9H0K1); assay: Inhibition of SIK2 at 10 uM

## CCN1CCN(Cc2ccc(NC(=O)c3ccc(C)c(C#Cc4cnc5[nH]ccc5c4)c3)cc2C(F)(F)F)CC1
[1]
  residual binding, % of control: 2%
[2]
  inhibition: 6.8%
[3]
  inhibition: 15%
[4]
  inhibition: 100%
[5]
  residual binding, % of control: 0.15%
[6]
  inhibition: 0.7%
[7]
  residual binding, % of control: 100%
BaF3
  EC50: 1000 nM
[8]
  residual binding, % of control: 63%
[9]
  level, % of control: 0.15%
[10]
  level, % of control: 100%
[11]
  inhibition: 54%
[12]
  residual binding, % of control: 62%
[13]
  inhibition: 100%
[14]
  residual binding, % of control: 28%
[15]
  level, % of control: 64%
[16]
  residual binding, % of control: 0.25%
[17]
  level, % of control: 13%
[18]
  residual binding, % of control: 46%
[19]
  residual binding, % of control: 46%
[20]
  level, % of control: 52%
[21]
  level, % of control: 31%
[22]
  inhibition: 100%
[23]
  inhibition: 12%
[24]
  residual binding, % of control: 0.1%
[25]
  inhibition: 0.6%
[26]
  inhibition: 79%
[27]
  inhibition: 0.15%
[28]
  residual binding, % of control: 100%
[29]
  residual binding, % of control: 14%
[30]
  inhibition: 100%
[31]
  residual binding, % of control: 0.35%
[32]
  inhibition: 93%
[33]
  inhibition: 59%
[34]
  residual binding, % of control: 0%
[35]
  residual binding, % of control: 2.4%
[36]
  residual binding, % of control: 41%
[37]
  level, % of control: 26%
[38]
  residual binding, % of control: 38%
[39]
  level, % of control: 0.6%
[40]
  inhibition: 3.2%
[41]
  inhibition: 6.4%
[42]
  inhibition: 18%

## CCN1CCN(Cc2ccc(NC(=O)c3ccc(C)c(C#Cc4cccnc4)c3)cc2C(F)(F)F)CC1
[1]
  residual binding, % of control: 0.5%
[2]
  inhibition: 14%
[3]
  inhibition: 3.2%
[4]
  inhibition: 83%
[5]
  residual binding, % of control: 0.15%
[6]
  inhibition: 9.5%
[7]
  residual binding, % of control: 100%
BaF3
  EC50: 1590 nM
[8]
  residual binding, % of control: 85%
[9]
  level, % of control: 2.4%
[10]
  level, % of control: 100%
[11]
  inhibition: 66%
[12]
  residual binding, % of control: 100%
[13]
  inhibition: 100%
[14]
  residual binding, % of control: 62%
[15]
  level, % of control: 72%
[16]
  residual binding, % of control: 0.4%
[17]
  level, % of control: 24%
[18]
  residual binding, % of control: 8.4%
[19]
  residual binding, % of control: 34%
[20]
  level, % of control: 23%
[21]
  level, % of control: 52%
[22]
  inhibition: 100%
[23]
  inhibition: 41%
[24]
  residual binding, % of control: 0.15%
[25]
  inhibition: 0%
[26]
  inhibition: 67%
[27]
  inhibition: 3.4%
[28]
  residual binding, % of control: 100%
[29]
  residual binding, % of control: 47%
[30]
  inhibition: 100%
[31]
  residual binding, % of control: 0.25%
[32]
  inhibition: 93%
[33]
  inhibition: 73%
[34]
  residual binding, % of control: 0%
[35]
  residual binding, % of control: 2.8%
[36]
  residual binding, % of control: 81%
[37]
  level, % of control: 48%
[38]
  residual binding, % of control: 100%
[39]
  level, % of control: 0.1%
[40]
  inhibition: 11%
[41]
  inhibition: 22%
[42]
  inhibition: 21%
